Experimental data reported in patent publication US12077503B2, “Substituted cyclic amides and their use as herbicides” (FMC CORPORATION, priority 2015, dated 2024).

Columns and labels:
Format in all cases: in vivo
[1] = test system: wheat (Triticum aestivum); assay: Test A preemergence; conditions: Triticum aestivum, pre-emergence, 240 h, 0 to 100 scale (0 no effect, 100 complete control), read-out: Plant response rating, Wheat; for plant injury at 500 g/ha: 500 g ai/ha, preemergence; for plant injury at 125 g/ha: Preemergence, 125 g ai/ha
Method in brief: (§1)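 Preemergence soil spray on seeded pots or post-emergence spray on 1–2 leaf plants, in loam–sand blend. Greenhouse ~10 d. Visual rating 0–100 against untreated plants.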

[2] = test system: crabgrass, large (Digitaria sanguinalis); assay: Test A preemergence; conditions: Digitaria sanguinalis, pre-emergence, 240 h, 0 to 100 scale (0 no effect, 100 complete control), read-out: Plant response rating, Crabgrass, Large; for pest or weed control at 500 g/ha: 500 g ai/ha, preemergence; for pest or weed control at 125 g/ha: Preemergence, 125 g ai/ha
Method in brief: as §1

[3] = test system: velvetleaf (Abutilon theophrasti); assay: Test A preemergence; conditions: Abutilon theophrasti, pre-emergence, 240 h, 0 to 100 scale (0 no effect, 100 complete control), read-out: Plant response rating, Velvetleaf; for pest or weed control at 500 g/ha: 500 g ai/ha, preemergence; for pest or weed control at 125 g/ha: Preemergence, 125 g ai/ha
Method in brief: as §1

[4] = test system: barnyardgrass (Echinochloa crus-galli); assay: Test A preemergence; conditions: Echinochloa crus-galli, pre-emergence, 240 h, 0 to 100 scale (0 no effect, 100 complete control), read-out: Plant response rating, Barnyardgrass; for pest or weed control at 500 g/ha: 500 g ai/ha, preemergence; for pest or weed control at 125 g/ha: Preemergence, 125 g ai/ha
Method in brief: as §1

[5] = test system: giant foxtail (Setaria faberii); assay: Test A preemergence; conditions: Setaria faberi, pre-emergence, 240 h, 0 to 100 scale (0 no effect, 100 complete control), read-out: Plant response rating, Foxtail, Giant; for pest or weed control at 500 g/ha: 500 g ai/ha, preemergence; for pest or weed control at 125 g/ha: Preemergence, 125 g ai/ha
Method in brief: as §1

[6] = test system: pigweed (Amaranthus retroflexus); assay: Test A preemergence; conditions: Amaranthus retroflexus, pre-emergence, 240 h, 0 to 100 scale (0 no effect, 100 complete control), read-out: Plant response rating, Pigweed; for pest or weed control at 500 g/ha: 500 g ai/ha, preemergence; for pest or weed control at 125 g/ha: Preemergence, 125 g ai/ha
[7] = test system: morningglory (Ipomoea spp.); assay: Test A preemergence; conditions: Ipomoea, pre-emergence, 240 h, 0 to 100 scale (0 no effect, 100 complete control), read-out: Plant response rating, Morningglory; for pest or weed control at 500 g/ha: 500 g ai/ha, preemergence; for pest or weed control at 125 g/ha: Preemergence, 125 g ai/ha
Method in brief: as §1

corn (Zea mays) [8] = assay: Test A preemergence; conditions: Zea mays, pre-emergence, 240 h, 0 to 100 scale (0 no effect, 100 complete control); for Corn plant response rating (crop injury, 0 = no effect, 100 = complete kill) at 500 g/ha: 500 g ai/ha, preemergence; for Corn plant response rating (crop injury, 0 = no effect, 100 = complete kill) at 125 g/ha: Preemergence, 125 g ai/ha
Method in brief: as §1

[9] = test system: wheat (Triticum aestivum); assay: Test A postemergence; conditions: Triticum aestivum, post-emergence, 240 h, Postemergence; for plant injury at 125 g/ha: 125 g ai/ha, visual rating about 10 d after treatment, read-out: Wheat plant response rating (0 to 100 scale); for plant injury at 500 g/ha: 500 g ai/ha, visual injury, 0 to 100 scale (0 no effect, 100 complete control), approx. 10 d, read-out: Plant response rating, Wheat
Method in brief: as §1

[10] = test system: crabgrass, large (Digitaria sanguinalis); assay: Test A postemergence; conditions: Digitaria sanguinalis, post-emergence, 240 h, Postemergence; for pest or weed control at 125 g/ha: 125 g ai/ha, visual rating about 10 d after treatment, read-out: Crabgrass, Large plant response rating (0 to 100 scale); for pest or weed control at 500 g/ha: 500 g ai/ha, visual injury, 0 to 100 scale (0 no effect, 100 complete control), approx. 10 d, read-out: Plant response rating, Crabgrass, Large
Method in brief: as §1

[11] = test system: velvetleaf (Abutilon theophrasti); assay: Test A postemergence; conditions: Abutilon theophrasti, post-emergence, 240 h, Postemergence; for pest or weed control at 125 g/ha: 125 g ai/ha, visual rating about 10 d after treatment, read-out: Velvetleaf plant response rating (0 to 100 scale); for pest or weed control at 500 g/ha: 500 g ai/ha, visual injury, 0 to 100 scale (0 no effect, 100 complete control), approx. 10 d, read-out: Plant response rating, Velvetleaf
Method in brief: as §1

[12] = test system: barnyardgrass (Echinochloa crus-galli); assay: Test A postemergence; conditions: Echinochloa crus-galli, post-emergence, 240 h, Postemergence; for pest or weed control at 125 g/ha: 125 g ai/ha, visual rating about 10 d after treatment, read-out: Barnyardgrass plant response rating (0 to 100 scale, 0 no effect, 100 complete control); for pest or weed control at 500 g/ha: 500 g ai/ha, visual injury, 0 to 100 scale (0 no effect, 100 complete control), approx. 10 d, read-out: Plant response rating, Barnyardgrass
Method in brief: as §1

[13] = test system: giant foxtail (Setaria faberii); assay: Test A postemergence; conditions: Setaria faberi, post-emergence, 240 h, Postemergence; for pest or weed control at 125 g/ha: 125 g ai/ha, visual rating about 10 d after treatment, read-out: Foxtail, Giant plant response rating (0 to 100 scale); for pest or weed control at 500 g/ha: 500 g ai/ha, visual injury, 0 to 100 scale (0 no effect, 100 complete control), approx. 10 d, read-out: Plant response rating, Foxtail, Giant
Method in brief: as §1

[14] = test system: pigweed (Amaranthus retroflexus); assay: Test A postemergence; conditions: Amaranthus retroflexus, post-emergence, 240 h, Postemergence; for pest or weed control at 125 g/ha: 125 g ai/ha, visual rating about 10 d after treatment, read-out: Pigweed plant response rating (0 to 100 scale); for pest or weed control at 500 g/ha: 500 g ai/ha, visual injury, 0 to 100 scale (0 no effect, 100 complete control), approx. 10 d, read-out: Plant response rating, Pigweed
Method in brief: as §1

[15] = test system: morningglory (Ipomoea spp.); assay: Test A postemergence; conditions: Ipomoea, post-emergence, 240 h, Postemergence; for pest or weed control at 125 g/ha: 125 g ai/ha, visual rating about 10 d after treatment, read-out: Morningglory plant response rating (0 to 100 scale); for pest or weed control at 500 g/ha: 500 g ai/ha, visual injury, 0 to 100 scale (0 no effect, 100 complete control), approx. 10 d, read-out: Plant response rating, Morningglory
Method in brief: as §1

corn (Zea mays) [16] = assay: Test A postemergence; conditions: Zea mays, post-emergence, 240 h, Postemergence; for plant injury at 125 g/ha: 125 g ai/ha, visual rating about 10 d after treatment, read-out: Corn plant response rating (0 to 100 scale); for Corn plant response rating (crop injury, 0 = no effect, 100 = complete kill) at 500 g/ha: 500 g ai/ha, visual injury, 0 to 100 scale (0 no effect, 100 complete control), approx. 10 d
Method in brief: as §1

CN1C[C@H](c2ccccc2)[C@](C)(C(=O)Nc2ccccc2F)C1=O (racemic) [Compound 1360]
0%: plant injury at 500 g/ha [1] | plant injury at 125 g/ha [1] | pest or weed control at 500 g/ha [2] | pest or weed control at 125 g/ha [2] | pest or weed control at 500 g/ha [3] | pest or weed control at 125 g/ha [3] | pest or weed control at 500 g/ha [4] | pest or weed control at 125 g/ha [4] | pest or weed control at 500 g/ha [5] | pest or weed control at 125 g/ha [5] | pest or weed control at 500 g/ha [6] | pest or weed control at 125 g/ha [6] | pest or weed control at 500 g/ha [7] | pest or weed control at 125 g/ha [7] | Corn plant response rating (crop injury, 0 = no effect, 100 = complete kill) at 500 g/ha (corn (Zea mays) [8]) | Corn plant response rating (crop injury, 0 = no effect, 100 = complete kill) at 125 g/ha (corn (Zea mays) [8]) | plant injury at 125 g/ha [9] | plant injury at 500 g/ha [9] | pest or weed control at 125 g/ha [10] | pest or weed control at 500 g/ha [10] | pest or weed control at 125 g/ha [11] | pest or weed control at 500 g/ha [11] | pest or weed control at 125 g/ha [12] | pest or weed control at 500 g/ha [12] | pest or weed control at 125 g/ha [13] | pest or weed control at 500 g/ha [13] | pest or weed control at 125 g/ha [14] | pest or weed control at 500 g/ha [14] | pest or weed control at 125 g/ha [15] | pest or weed control at 500 g/ha [15] | plant injury at 125 g/ha (corn (Zea mays) [16]) | Corn plant response rating (crop injury, 0 = no effect, 100 = complete kill) at 500 g/ha (corn (Zea mays) [16])

O=C1NCC(c2c(Cl)cccc2Cl)C1C(=O)Nc1ccccc1F (stereo not shown) [Compound 1361]
0%: plant injury at 500 g/ha [1] | plant injury at 125 g/ha [1] | pest or weed control at 500 g/ha [2] | pest or weed control at 125 g/ha [2] | pest or weed control at 500 g/ha [3] | pest or weed control at 125 g/ha [3] | pest or weed control at 500 g/ha [4] | pest or weed control at 125 g/ha [4] | pest or weed control at 500 g/ha [5] | pest or weed control at 125 g/ha [5] | pest or weed control at 500 g/ha [6] | pest or weed control at 125 g/ha [6] | pest or weed control at 500 g/ha [7] | pest or weed control at 125 g/ha [7] | Corn plant response rating (crop injury, 0 = no effect, 100 = complete kill) at 500 g/ha (corn (Zea mays) [8]) | Corn plant response rating (crop injury, 0 = no effect, 100 = complete kill) at 125 g/ha (corn (Zea mays) [8]) | plant injury at 125 g/ha [9] | plant injury at 500 g/ha [9] | pest or weed control at 125 g/ha [10] | pest or weed control at 500 g/ha [10] | pest or weed control at 125 g/ha [11] | pest or weed control at 500 g/ha [11] | pest or weed control at 125 g/ha [12] | pest or weed control at 500 g/ha [12] | pest or weed control at 125 g/ha [13] | pest or weed control at 500 g/ha [13] | pest or weed control at 125 g/ha [14] | pest or weed control at 500 g/ha [14] | pest or weed control at 125 g/ha [15] | pest or weed control at 500 g/ha [15] | plant injury at 125 g/ha (corn (Zea mays) [16]) | Corn plant response rating (crop injury, 0 = no effect, 100 = complete kill) at 500 g/ha (corn (Zea mays) [16])
